Consider 15 compounds from patent US9227971B2, “Pyrazolo[1,5-a]pyrimidine compounds as mTOR inhibitors” (Merck Sharp & Dohme Corp., priority 2010, dated 2016).

Where two headings read alike, the source gives them in different places.

The subject of test [1] is phosphorylated AKT Ser473 (pAKT S473), mTORC2 activity, PC3 cells. The test is described as follows: mTOR target engagement assay, immunofluorescent cell-based, pAKT S473 readout (mTORC2 activity). In short, it runs like this: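 After blocking, cells were stained overnight at 4 °C with anti-pAKT S473 antibody, then a fluorescent secondary; inhibition was read as reduced fluorescence intensity.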

Test [2] relates to phosphorylated 4E-BP1 Thr37/46 (p4E-BP1 Thr37/46), mTORC1 activity, PC3 cells. The test is described as follows: mTOR target engagement assay, immunofluorescent cell-based, p4E-BP1 Thr37/46 readout (mTORC1 activity). The note with it: read-out: p4E-BP1 Thr37/46 IC50. In short, it runs like this:
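Read-out is fluorescence intensity of immunostained p4E-BP1 Thr37/46 in fixed PC3 cells, fitted to a logistic curve for IC50 with DMSO-only wells as top. Cells had been exposed to serial compound dilutions for ninety minutes at 37° C in 5% FBS medium with 0.25% DMSO.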

Setting [3] is: Homo sapiens, PC-3, Table 6-1, PC3 cells.
Setting [4] is: Homo sapiens, PC-3, PC3 cells, compound treatment ninety minutes at 37° C.
Setting [5] is: Homo sapiens, PC-3, Table 7-8, PC3 cells.
Setting [6] is: Homo sapiens, PC-3, Table 3-1, PC3 cells.

With `CC(=O)c1c([C@@H]2C[C@H]3CC[C@@H](C2)N3C=O)nc2c(-c3ccc(-c4ncc[nH]4)nc3)cnn2c1N` [Compound 6.15, (1R,3s,5S)-3-(3-(6-(1H-imidazol-2-yl)pyridin-3-yl)-6-acetyl-7-aminopyrazolo[1,5-a]pyrimidin-5-yl)-8-azabicyclo[3.2.1]octane-8-carbaldehyde], the IC50 in test [1] (setting [3]) and in test [2] (setting [3]) was 0.001 to 0.1 µM throughout.

In the case of `CCN/C(=N\CCCN(C)C)n1ncc(C(=O)N2[C@@H]3CC[C@H]2C[C@H](c2nc4c(-c5ccc(-c6ccccc6F)nc5)cnn4c(N)c2S(C)(=O)=O)C3)n1` [Compound 8.46, (E)-4-((1R,3s,5S)-3-(7-amino-3-(6-(2-fluorophenyl)pyridin-3-yl)-6-(methylsulfonyl)pyrazolo[1,5-a]pyrimidin-5-yl)-8-azabicyclo[3.2.1]octane-8-carbonyl)-N′-(3-(dimethylamino)propyl)-N-ethyl-2H-1,2,3-triazole-2-carboximidamide], the IC50 fell in the range of 0.001 to 0.1 µM in test [1] (Homo sapiens, PC-3, PC3 cells) and 0.1 to 1 µM in test [2] (Homo sapiens, PC-3, PC3 cells).

Turning to `CC(=O)c1c([C@@H]2C[C@H]3CC[C@@H](C2)N3C(=O)[C@@H](C)O)nc2c(-c3ccc(-c4ccccc4)nc3)cnn2c1N` [Compound 1.1.2], the IC50 fell in the range of 0.001 to 0.1 µM in test [1] (setting [4]) and 0.1 to 1 µM in test [2] (setting [4]).

Turning to `CC(=O)c1c(C2CC3CCC(C2)N3C(=O)c2nn[nH]n2)nc2c(-c3ccc(-c4ccccc4)nc3)cnn2c1N` [Compound 1.1.24, 1-(5-((1R,3s,5S)-8-(1H-tetrazole-5-carbonyl)-8-azabicyclo[3.2.1]octan-3-yl)-7-amino-3-(6-phenylpyridin-3-yl)pyrazolo[1,5-a]pyrimidin-6-yl)ethanone], the IC50 in test [1] (setting [4]) and in test [2] (setting [4]) was 1 to 10 µM each time.

For the compound `Nc1c(C2CC2)c([C@@H]2C[C@H]3CC[C@@H](C2)N3C(=O)NO)nc2c(-c3ccc(-c4ccccc4)nc3)cnn12` [Compound 4.32, (1R,3s,5S)-3-(7-amino-6-cyclopropyl-3-(6-phenylpyridin-3-yl)pyrazolo[1,5-a]pyrimidin-5-yl)-N-hydroxy-8-azabicyclo[3.2.1]octane-8-carboxamide], the IC50 in test [1] (setting [4]) and in test [2] (setting [4]) was 0.001 to 0.1 µM throughout.

`CC(=O)c1c([C@@H]2C[C@H]3CC[C@@H](C2)N3C(=O)CO)nc2c(-c3ccc(-c4ncc(C)[nH]4)nc3)cnn2c1N` [Compound 6.26, 1-((1R,3s,5S)-3-(6-acetyl-7-amino-3-(6-(5-methyl-1H-imidazol-2-yl)pyridin-3-yl)pyrazolo[1,5-a]pyrimidin-5-yl)-8-azabicyclo[3.2.1]octan-8-yl)-2-hydroxyethanone]: the IC50 in test [1] (setting [3]) and in test [2] (setting [3]) was 0.001 to 0.1 µM throughout.

In the case of `CC(=O)c1c([C@@H]2C[C@H]3CC[C@@H](C2)N3C(=O)c2cc[nH]n2)nc2c(-c3ccc(C(O)C(F)(F)F)nc3)cnn2c1N` (stereo partly drawn) [Compound 7.66, 1-(5-((1R,3s,5S)-8-(1H-pyrazole-3-carbonyl)-8-azabicyclo[3.2.1]octan-3-yl)-7-amino-3-(6-(2,2,2-trifluoro-1-hydroxyethyl)pyridin-3-yl)pyrazolo[1,5-a]pyrimidin-6-yl)ethanone], the IC50 in test [1] (Homo sapiens, PC-3, PC3 cells) is 1 to 10 µM; in test [2] (Homo sapiens, PC-3, PC3 cells) it was 0.1 to 1 µM.

For `CS(=O)(=O)c1c([C@@H]2C[C@H]3CC[C@@H](C2)N3C(=O)c2nnc[nH]2)nc2c(-c3ccc(C4(O)CCCC4)nc3)cnn2c1N` [Compound 7.46, ((1R,3s,5S)-3-(7-amino-3-(6-(1-hydroxycyclopentyl)pyridin-3-yl)-6-(methylsulfonyl)pyrazolo [1,5-a]pyrimidin-5-yl)-8-azabicyclo[3.2.1]octan-8-yl)(4H-1,2,4-triazol-3-yl)methanone], the IC50 in test [1] (setting [5]) and in test [2] (setting [5]) was 0.001 to 0.1 µM each time.

Take `Cc1cc(C(=O)N2[C@@H]3CC[C@H]2C[C@H](c2nc4c(-c5ccc(-c6ccccc6)nc5)ccn4c(N)c2S(C)(=O)=O)C3)[nH]n1` [Compound 3.81, ((1R,3s,5S)-3-(7-amino-6-(methyslulfonyl)-3-(6-phenylpyridin-3-yl)pyrazolo[1,5-a]pyrimidin-5-yl)-8-azabicyclo[3.2.1]octan-8-yl)(3-methyl-1H-pyrazol-5-yl)methanone]: the IC50 in test [1] (setting [6]) and in test [2] (setting [6]) was 0.1 to 1 µM in each case.

Turning to `Nc1c(Br)c([C@@H]2C[C@H]3CC[C@@H](C2)N3C(=O)c2nnc[nH]2)nc2c(-c3ccc(C4(O)CCC4)nc3)cnn12` [Compound 7.42, ((1R,3s,5S)-3-(7-amino-6-bromo-3-(6-(1-hydroxycyclobutyl)pyridin-3-yl)pyrazolo[1,5-a]pyrimidin-5-yl)-8-azabicyclo[3.2.1]octan-8-yl)(4H-1,2,4-triazol-3-yl)methanone], the IC50 in test [1] (setting [5]) was 1 to 10 µM; in test [2] (setting [5]) it was 0.1 to 1 µM.

Turning to `Cc1nc(-c2ccc(-c3cnn4c(N)c(C5CC5)c([C@@H]5C[C@H]6CC[C@@H](C5)N6C(=O)CO)nc34)cn2)[nH]c1C` [Compound 6.32, 1-((1R,3s,5S)-3-(7-amino-6-cyclopropyl-3-(6-(4,5-dimethyl-1H-imidazol-2-yl)pyridin-3-yl)pyrazolo[1,5-a]pyrimidin-5-yl)-8-azabicyclo[3.2.1]octan-8-yl)-2-hydroxyethanone], the figures for the IC50 in test [1] (setting [3]) and in test [2] (setting [3]) were 0.001 to 0.1 µM and 0.1 to 1 µM, respectively.

Consider `NC(=O)c1c([C@@H]2C[C@H]3CC[C@@H](C2)N3C(=O)c2nc[nH]n2)nc2c(-c3ccc(-c4ccccc4)nc3)cnn2c1N` [Compound 1.1.25, 5-((1R,3s,5S)-8-(1H-1,2,4-triazole-3-carbonyl)-8-azabicyclo[3.2.1]octan-3-yl)-7-amino-3-(6-phenylpyridin-3-yl)pyrazolo[1,5-a]pyrimidine-6-carboxamide], for which the IC50 in test [1] (setting [4]) and in test [2] (setting [4]) was 0.001 to 0.1 µM in each case.

With `CS(=O)(=O)c1c([C@@H]2C[C@H]3CC[C@@H](C2)N3C(=N)NO)nc2c(-c3ccc(-c4ccccc4)nc3)cnn2c1N` [Compound 8.72, (1R,3s,5S)-3-(7-amino-6-(methylsulfonyl)-3-(6-phenylpyridin-3-yl)pyrazolo[1,5-a]pyrimidin-5-yl)-N-hydroxy-8-azabicyclo[3.2.1]octane-8-carboximidamide], the IC50 in test [1] (PC3 cells) and in test [2] (PC3 cells) was 1 to 10 µM each time.

As for `CS(=O)(=O)c1c([C@@H]2C[C@H]3CC[C@@H](C2)N3C(=O)CO)nc2c(-c3ccc(-c4ccccc4)nc3)cnn2c1N` [Compound 3.1, 1-((1R,3s,5S)-3-(7-amino-6-(methylsulfonyl)-3-(6-phenylpyridin-3-yl)pyrazolo[1,5-a]pyrimidin-5-yl)-8-azabicyclo[3.2.1]octan-8-yl)-2-hydroxyethanone], the IC50 is 0.001 to 0.1 µM in test [1] (setting [6]) and 0.1 to 1 µM in test [2] (setting [6]).

With `CC(=O)c1c([C@@H]2C[C@H]3CC[C@@H](C2)N3C(=O)c2nnc[nH]2)nc2c(-c3cnc(-c4ccccc4)c(O)c3)cnn2c1N` [Compound 1.1.31, 1-(5-((1R,3s,5S)-8-(4H-1,2,4-triazole-3-carbonyl)-8-azabicyclo[3.2.1]octan-3-yl)-7-amino-3-(5-hydroxy-6-phenylpyridin-3-yl)pyrazolo[1,5-a]pyrimidin-6-yl)ethanone], the IC50 in test [1] (setting [4]) and in test [2] (setting [4]) was 1 to 10 µM throughout.
